We go through 10 compounds from US10253004B2, “Indanylaminopyrazinylcyclopropanecarboxylic acids, pharmaceutical compositions and uses thereof” (Boehringer Ingelheim International GmbH, priority 2017, dated 2019).

The nature of data set [1]: Chemical stability (degradation kinetics) in acidic aqueous media, HPLC recovery. The conditions noted are these: for Amount of degradation after 2 h: pH ca. 1.2, 37° C., acetonitrile/0.1 M aqueous HCl (2:3); for Chemical stability at pH ca. 1.2: degradation after 2 h at 37° C.: pH ca. 1.2, 2 h. It is filed as physicochemical. On the procedure:
Degradation kinetics is used to simulate chemical stability of compounds in the acidic part of the gastro intestinal tract. […] Their application as medical drugs to treat human diseases is therefore less restricted and troublesome.
The chemical stability of the compounds of the invention at pH value of ca. 1.2 is determined as follows:
Compound is dissolved in an HPLC vial either in a mixture of acetonitrile/0.1 M aqueous HCl (2:3; pH ca. 1.2) or in a mixture of acetonitrile/Mcllvaine buffer pH 7.4 (2:3) to get a concentration of approximately 0.25 mg/ml. The vial was then transferred into an HPLC autosampler system and maintained at a temperature of 37° C. A first sample is taken and injected immediately into a standard HPLC system with a UV DAD detector. Further samples are injected after 2, 4, 6, 8 and 10 hours. Amount of degraded compound is measured by determining the recovery rate of compound [%] for each injection using an HPLC standard gradient method. Therefore the peak area of the main peak for the first injection (AUt0) is determined and set as 100%. Peak area of the main peak is determined also for the further injections (AUtn, n=2, 4, 6, 8, 10) and expressed as fraction of […] [%].

The target of data set [2] is cytochrome P450 2C8-isoenzyme (Homo sapiens (Human), UniProt P10632). As to the kind of experiment: Inhibition of CYP-2C8 (amodiaquine deethylation, human liver microsomes). Format: in vitro ADME. The conditions noted are these: amodiaquine 1 μM, 37° C. On the procedure: (§1) All assays are carried out on a robotic system in 96 well plates. The final incubation volume contains TRIS buffer (0.1 M), MgCl2 (5 mM), human liver microsomes (0.05 mg/mL), amodiaquine (1 μM) and the test compound at five different concentrations or no compound (high control) in duplicate (e.g. highest concentration 10-50 μM with subsequent serial 1:4 dilutions). Following a short preincubation period, reactions are started with the cofactor (NADPH, 1 mM) and stopped by cooling the incubation down to 8° C. and subsequently by addition of one volume of acetonitrile. An internal standard solution—the stable isotope d5-desethylamodiaquine—is added after quenching of incubations. Peak area analyte (=metabolite formed) and internal standard is determined by LC-MS/MS. The resulting peak area ratio analyte to internal standard in these incubations is compared to a control activity containing no test compound. Within each of the assay runs, the IC50 of a positive control inhibitor (Montelukast) is determined.
Chain of cytochrome P450 2C8-isoenzyme (P10632 whole entry): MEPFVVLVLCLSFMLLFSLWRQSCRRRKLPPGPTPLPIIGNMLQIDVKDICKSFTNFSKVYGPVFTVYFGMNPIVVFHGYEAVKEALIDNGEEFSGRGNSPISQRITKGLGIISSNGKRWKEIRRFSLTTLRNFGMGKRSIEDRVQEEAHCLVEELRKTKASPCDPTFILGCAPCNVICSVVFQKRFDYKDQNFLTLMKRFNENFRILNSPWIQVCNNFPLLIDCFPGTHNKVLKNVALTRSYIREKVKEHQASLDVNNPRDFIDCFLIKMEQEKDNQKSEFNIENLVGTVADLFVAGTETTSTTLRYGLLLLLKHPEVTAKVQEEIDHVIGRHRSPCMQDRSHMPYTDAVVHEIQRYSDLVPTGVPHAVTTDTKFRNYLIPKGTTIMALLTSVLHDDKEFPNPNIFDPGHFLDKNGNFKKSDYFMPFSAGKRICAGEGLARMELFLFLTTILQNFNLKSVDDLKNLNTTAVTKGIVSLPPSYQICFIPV
(Liver microsomes are a subcellular fraction often used to study metabolism.)

Data set [3] in a line: Aqueous solubility in buffer vs acetonitrile/water, LC-UV. The conditions noted are these: kinetic from dmso stock, pH 6.8 buffer, 24 h shaking, 2.5% DMSO. Format: physicochemical. How it is done:
The aqueous solubility of the compounds of the invention is determined by comparing the amount dissolved in buffer to the amount in an acetonitrile/water (1/1) solution. Starting from a 10 mM DMSO stock solution aliquots are diluted with acetonitrile/water (1/1) or buffer, respectively. After 24 h of shaking, the solutions are filtrated and analyzed by LC-UV. The amount dissolved in buffer is compared to the amount in the acetonitrile solution.
Solubility is usually being measured from 0.001 to 0.125 mg/mL at a DMSO concentration of 2.5%. If more than 90% of the compound is dissolved in buffer, the value is marked with “>”.

For data set [4], the target named is cytochrome P450 2C9-isoenzyme (Homo sapiens (Human), UniProt P11712). As to the kind of experiment: Inhibition of CYP-2C9 (diclofenac hydroxylation, human liver microsomes). The conditions noted are these: diclofenac 10 μM, 37° C. It is filed as in vitro ADME. On the procedure: as §1, with “(0.1” for “(0.05”, “diclofenac (10” for “amodiaquine (1”, “(e.g.,” for “(e.g.”, “^13C6-hydroxydiclofenac—is” for “d5-desethylamodiaquine—is”, “(sulfaphenazole)” for “(Montelukast)”
Chain of cytochrome P450 2C9-isoenzyme (P11712 whole entry): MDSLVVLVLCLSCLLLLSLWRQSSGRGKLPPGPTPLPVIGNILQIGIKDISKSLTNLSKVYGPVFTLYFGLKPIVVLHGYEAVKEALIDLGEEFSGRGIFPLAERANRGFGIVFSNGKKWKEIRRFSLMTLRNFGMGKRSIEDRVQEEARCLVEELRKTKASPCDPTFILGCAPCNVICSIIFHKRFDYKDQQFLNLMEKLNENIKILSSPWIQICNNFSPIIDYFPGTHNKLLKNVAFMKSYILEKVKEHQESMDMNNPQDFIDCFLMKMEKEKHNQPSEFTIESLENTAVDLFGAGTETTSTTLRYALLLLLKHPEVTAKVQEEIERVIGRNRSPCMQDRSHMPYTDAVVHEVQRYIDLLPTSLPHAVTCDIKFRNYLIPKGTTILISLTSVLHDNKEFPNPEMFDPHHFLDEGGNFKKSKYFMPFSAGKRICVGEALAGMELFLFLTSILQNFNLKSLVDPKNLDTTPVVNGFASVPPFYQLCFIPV

Data set [5] deals with human GPR40 receptor (Homo sapiens (Human), UniProt O14842). As to the kind of experiment: IP1 accumulation measurements using the IPOne assay system. Format: cell-based. How it is done: IP1 accumulation measurements using the IPOne assay system—1321N1 cells stably expressing human GPR40 receptor (Euroscreen, Belgium) are seeded 24 h before the assay in white 384-well plates in culture medium containing 10% FCS, 1% Na-Pyruvate and 400 μg/mL G418. IP1 is assayed according to the manufacturer's description (Cisbio Bioassays, France). In brief, the assay is started by substitution of the culture medium by stimulation buffer (Hepes 10 mM, CaCl2 1 mM, MgCl2 0.5 mM, KCl 4.2 mM, NaCl 146 mM, glucose 5.5 mM and LiCl 50 mM, pH 7.4). Cells are stimulated for 1 h at 37° C., 5% CO2 by addition of the compounds that are diluted in stimulation buffer containing LiCl. Assays are stopped by adding HTRF-conjugates (IP1-d2 and Anti-IP1 cryptate Tb) and lysis buffer, provided by the manufacturer. After an incubation time of 1 h at room temperature plates are measured using an EnVision™, Perkin Elmer. The obtained fluorescence ratios at 665/615 […] are then used to calculate the pEC50 values using Assay Explorer 3.3 Software (Accelrys, Inc.) by interpolation using an IP1 reference curve and subsequent sigmoidal curve fitting allowing for a variable hill slope.
Chain of human GPR40 receptor (O14842 whole entry): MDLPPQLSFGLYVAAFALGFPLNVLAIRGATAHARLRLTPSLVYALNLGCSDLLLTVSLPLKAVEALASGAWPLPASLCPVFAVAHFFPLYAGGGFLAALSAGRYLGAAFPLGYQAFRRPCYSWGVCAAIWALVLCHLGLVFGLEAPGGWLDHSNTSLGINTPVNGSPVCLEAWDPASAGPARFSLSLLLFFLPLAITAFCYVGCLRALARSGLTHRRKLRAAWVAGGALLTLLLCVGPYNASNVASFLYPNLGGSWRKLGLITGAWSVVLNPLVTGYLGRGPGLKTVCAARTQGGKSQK

Where [6] appears, read: given as IC50, own-compound values equal the EC50 of Table 2, read-out: GPR40: IC50.
Where [7] appears, read: 1321N1 cells stably expressing human GPR40, IP1 accumulation, read-out: EC50.

≈ marks a conversion by molar mass, not a printed value. Like-named read-outs stand apart in the source and are kept apart here. A value given as a limit tells only on which side of the number the result lay.

`Cc1c(C#N)cccc1-c1ccc(F)c2c1CC[C@H]2Oc1ccc([C@H]2C[C@@H]2C(=O)O)cc1` [Example 54 in WO 2013/178575, reference compound]: in data set [1], the “Amount of degradation after 2 h” value turned out to be 2.5%^.
Turning to `Cc1cc(-c2nnn(C)n2)cc(C)c1-c1ccc(F)c2c1CC[C@H]2Nc1cnc([C@H]2C[C@@H]2C(=O)O)cn1` [Example 35], the midpoint of inhibition in data set [2], the IC50, lay at 21000 nM. For the same compound, in data set [3] (aqueous buffer), the concentration in solution (solubility at 24 h) was 34 µg/mL (≈ 68.1 µM). Besides, inhibition in data set [4] was half-maximal at 32000 nM (IC50). Further, in data set [1], the “Amount of degradation after 2 h” value is reported as below 1% and the “Chemical stability at pH ca. 1.2: degradation after 2 h at 37° C.” value (“Chemical stability” below) is below 1%. The EC50 in data set [5] (setting [6]) came out at 2 nM.
Take `Cc1cc(OCCCS(C)(=O)=O)cc(C)c1-c1ccc(F)c2c1CC[C@H]2Nc1cnc([C@H]2C[C@@H]2C(=O)O)cn1` [Example 4, (1S,2S)-2-(5-{(R)-7-Fluoro-4-[4-(3-methanesulfonyl-propoxy)-2,6-dimethyl-phenyl]-indan-1-ylamino}-pyrazin-2-yl)-cyclopropanecarboxylic acid]: the IC50 in data set [2] and in data set [4] was above 50000 nM throughout. Besides, in data set [3] (buffer pH 6.8, aqueous buffer), the solubility (as a rule, the concentration that dissolves in the medium under given conditions) at 24 h came to 92 µg/mL (≈ 166 µM). The “Amount of degradation after 2 h” value in data set [1] is below 0.5%. For the same compound, in data set [1], the “Chemical stability” value is listed as below 0.5%. Besides, the EC50 in data set [5] (setting [7]) and in data set [5] (setting [6]) was 8 nM throughout.
For `Cc1cc(OCCC(C)(C)O)cc(C)c1-c1cccc2c1CC[C@H]2Nc1cnc([C@H]2C[C@@H]2C(=O)O)cn1` [Example 7, (1S,2S)-2-(5-{(R)-4-[4-(3-Hydroxy-3-methyl-butoxy)-2,6-dimethyl-phenyl]-indan-1-ylamino}-pyrazin-2-yl)-cyclopropanecarboxylic acid], in data set [1], the “Amount of degradation after 2 h” value was below 1%. For the same compound, the EC50 in data set [5] (setting [7]) is 4 nM.
In data set [3] (buffer pH 6.8, aqueous buffer), `Cc1cc(-c2nnn(C)n2)cc(C)c1-c1ccc(F)c2c1CC[C@H]2Oc1ccc([C@H]2C[C@@H]2C(=O)O)cc1` [Example 45 in WO 2013/178575, reference compound] returned a solubility at 24 h below 1 µg/mL.
For `Cc1cc(C(=O)NCC(C)(C)O)cc(C)c1-c1ccc(F)c2c1CC[C@H]2Oc1ccc([C@H]2C[C@@H]2C(=O)O)cc1` [Example 15 in WO 2013/178575, reference compound], the “Amount of degradation after 2 h” value in data set [1] is on record as 3%.
In data set [3] (buffer pH 6.8, aqueous buffer), `Cc1cc(OCCC(C)(C)O)cc(C)c1-c1ccc(F)c2c1CC[C@H]2Oc1ccc([C@H]2C[C@@H]2C(=O)O)cc1` [Example 17 in WO 2013/178575, reference compound] registered a solubility at 24 h below 1 µg/mL. Also, in data set [1], the “Amount of degradation after 2 h” value stood at 8% and the “Chemical stability” value is on record as 8%.
As for `Cc1cccc(C)c1-c1ccc(F)c2c1CC[C@H]2Oc1ccc(C2CC2C(=O)O)cc1` (stereo partly shown) [Example 33 in WO 2013/178575, reference compound], the “Amount of degradation after 2 h” value in data set [1] is reported as 8%.
Take `Cc1cc(OCCC(C)(C)O)cc(C)c1-c1ccc(F)c2c1CC[C@H]2Nc1cnc([C@H]2C[C@@H]2C(=O)O)cn1` [Example 2, (1S,2S)-2-(5-{(R)-7-Fluoro-4-[4-(3-hydroxy-3-methyl-butoxy)-2,6-dimethyl-phenyl]-indan-1-ylamino}-pyrazin-2-yl)-cyclopropanecarboxylic acid]: the half-maximal inhibitory concentration (IC50) in data set [2] and in data set [4] was above 50000 nM in each case. In data set [3] (buffer pH 6.8, aqueous buffer), this compound registered a solubility at 24 h of 87 µg/mL (≈ 167 µM). For the same compound, the “Amount of degradation after 2 h” value in data set [1] was below 0.5%. The “Chemical stability” value in data set [1] was below 0.5%. Further, the EC50 in data set [5] (setting [7]) and in data set [5] (setting [6]) was 4 nM each time.
For `Cc1cc(OCCCS(C)(=O)=O)cc(C)c1-c1ccc(F)c2c1CC[C@H]2Oc1ccc([C@H]2C[C@@H]2C(=O)O)cc1` [Example 11 in WO 2013/178575, reference compound], the IC50 – broadly, the concentration that inhibits the measured activity by half – amounted to 12000 nM in data set [2] and 17000 nM in data set [4]. In data set [1], the “Amount of degradation after 2 h” value was determined as 5%. In data set [1], the “Chemical stability” value is on record as 5%. In addition, in data set [5] (setting [6]), the EC50 was 8 nM.
